Laboratory results published in PubChem BioAssay (NCI).
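Briefly, cells in 96-well plates were exposed to five compound concentrations for 48 h, and endpoints were estimated by linear interpolation. Abbreviation: GI50, concentration required for 50% inhibition of growth. TGI: total growth inhibition.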

Key:
Assay in all cases: NCI-60 cell line screen, 48 h
SK-MEL-2 melanoma = system: SK-MEL-2 melanoma
NCI/ADR-RES ovarian = system: NCI/ADR-RES ovarian
MDA-MB-231 breast = system: MDA-MB-231 breast
HCT-15 colon = system: HCT-15 colon
RXF 393 renal = system: RXF 393 renal
CCRF-CEM leukemia = system: CCRF-CEM leukemia
SF-539 CNS = system: SF-539 CNS
NCI-H522 lung = system: NCI-H522 lung
MOLT-4 leukemia = system: MOLT-4 leukemia
OVCAR-3 ovarian = system: OVCAR-3 ovarian
DU-145 prostate = system: DU-145 prostate
HCC-2998 colon = system: HCC-2998 colon
UO-31 renal = system: UO-31 renal
OVCAR-5 ovarian = system: OVCAR-5 ovarian
PC-3 prostate = system: PC-3 prostate
HOP-62 NSCLC = system: HOP-62 NSCLC
OVCAR-4 ovarian = system: OVCAR-4 ovarian
A498 renal = system: A498 renal
HOP-92 NSCLC = system: HOP-92 NSCLC
UACC-62 melanoma = system: UACC-62 melanoma
SK-MEL-28 melanoma = system: SK-MEL-28 melanoma
SF-268 CNS = system: SF-268 CNS
A549 NSCLC = system: A549 NSCLC
SW-620 colon = system: SW-620 colon
CAKI-1 renal = system: CAKI-1 renal
M14 melanoma = system: M14 melanoma
IGROV1 ovarian = system: IGROV1 ovarian
TK-10 renal = system: TK-10 renal
SK-MEL-5 melanoma = system: SK-MEL-5 melanoma
HCT-116 colon = system: HCT-116 colon
SK-OV-3 ovarian = system: SK-OV-3 ovarian
NCI-H226 lung = system: NCI-H226 lung
OVCAR-8 ovarian = system: OVCAR-8 ovarian
U251 CNS = system: U251 CNS
NCI-H23 lung = system: NCI-H23 lung
HT29 colon = system: HT29 colon
SNB-75 CNS = system: SNB-75 CNS
KM12 colon = system: KM12 colon
HL-60(TB) leukemia = system: HL-60(TB) leukemia
UACC-257 melanoma = system: UACC-257 melanoma
ACHN renal = system: ACHN renal
EKVX NSCLC = system: EKVX NSCLC
NCI-H460 lung = system: NCI-H460 lung
LOX IMVI melanoma = system: LOX IMVI melanoma
MDA-MB-435 = system: MDA-MB-435
K-562 leukemia = system: K-562 leukemia
SNB-19 CNS = system: SNB-19 CNS
MALME-3M melanoma = system: MALME-3M melanoma
786-0 renal = system: 786-0 renal
RPMI-8226 leukemia = system: RPMI-8226 leukemia
MCF7 breast = system: MCF7 breast
HS 578T breast = system: HS 578T breast
SR leukemia = system: SR leukemia
COLO 205 colon = system: COLO 205 colon
T-47D breast = system: T-47D breast
SF-295 CNS = system: SF-295 CNS

SMILES: CCOC(=O)/C=C/c1cc2cc(-c3csc4ccccc34)ccc2[nH]1
- GI50 (SK-MEL-2 melanoma): 4.92 µM
- TGI (SK-MEL-2 melanoma): 17.3 µM
- GI50 (NCI/ADR-RES ovarian): 10 µM
- TGI (NCI/ADR-RES ovarian): 55.3 µM
- GI50 (MDA-MB-231 breast): 5.26 µM
- TGI (MDA-MB-231 breast): 18.2 µM
- GI50 (HCT-15 colon): 3.59 µM
- TGI (HCT-15 colon): 15.8 µM
- GI50 (RXF 393 renal): 3.86 µM
- GI50 (CCRF-CEM leukemia): 3.04 µM
- TGI (CCRF-CEM leukemia): 11.4 µM
- GI50 (SF-539 CNS): 14 µM
- TGI (SF-539 CNS): 27.1 µM
- GI50 (NCI-H522 lung): 4.19 µM
- TGI (NCI-H522 lung): 17 µM
- GI50 (MOLT-4 leukemia): 2.44 µM
- TGI (MOLT-4 leukemia): 10.4 µM
- GI50 (OVCAR-3 ovarian): 5.34 µM
- TGI (OVCAR-3 ovarian): 17.1 µM
- GI50 (DU-145 prostate): 4.83 µM
- TGI (DU-145 prostate): 16.6 µM
- GI50 (HCC-2998 colon): 14.4 µM
- TGI (HCC-2998 colon): 30.2 µM
- GI50 (UO-31 renal): 4.94 µM
- TGI (UO-31 renal): 19.1 µM
- GI50 (OVCAR-5 ovarian): 21.6 µM
- TGI (OVCAR-5 ovarian): 42.6 µM
- GI50 (PC-3 prostate): 3.42 µM
- TGI (PC-3 prostate): 13.8 µM
- GI50 (HOP-62 NSCLC): 5.71 µM
- TGI (HOP-62 NSCLC): 24.4 µM
- GI50 (OVCAR-4 ovarian): 7.1 µM
- TGI (OVCAR-4 ovarian): 19.8 µM
- GI50 (A498 renal): 12 µM
- TGI (A498 renal): 24.6 µM
- GI50 (HOP-92 NSCLC): 10.7 µM
- TGI (HOP-92 NSCLC): 29.5 µM
- GI50 (UACC-62 melanoma): 6.76 µM
- TGI (UACC-62 melanoma): 19.6 µM
- GI50 (SK-MEL-28 melanoma): 10.1 µM
- TGI (SK-MEL-28 melanoma): 21.6 µM
- GI50 (SF-268 CNS): 11 µM
- TGI (SF-268 CNS): 26.6 µM
- GI50 (A549 NSCLC): 4.39 µM
- TGI (A549 NSCLC): 18.1 µM
- GI50 (SW-620 colon): 3.54 µM
- TGI (SW-620 colon): 14.1 µM
- GI50 (CAKI-1 renal): 3.13 µM
- TGI (CAKI-1 renal): 15.2 µM
- GI50 (M14 melanoma): 5.42 µM
- TGI (M14 melanoma): 22.8 µM
- GI50 (IGROV1 ovarian): 4.62 µM
- TGI (IGROV1 ovarian): 17.4 µM
- GI50 (TK-10 renal): 14.4 µM
- TGI (TK-10 renal): 29 µM
- GI50 (SK-MEL-5 melanoma): 4.52 µM
- TGI (SK-MEL-5 melanoma): 16.6 µM
- GI50 (HCT-116 colon): 2.96 µM
- TGI (HCT-116 colon): 31.4 µM
- GI50 (SK-OV-3 ovarian): 15.2 µM
- TGI (SK-OV-3 ovarian): 28.7 µM
- GI50 (NCI-H226 lung): 10.6 µM
- TGI (NCI-H226 lung): 32.7 µM
- GI50 (OVCAR-8 ovarian): 3.79 µM
- TGI (OVCAR-8 ovarian): 13.7 µM
- GI50 (U251 CNS): 5.49 µM
- TGI (U251 CNS): 18.8 µM
- GI50 (NCI-H23 lung): 18.3 µM
- TGI (NCI-H23 lung): 47.8 µM
- GI50 (HT29 colon): 3.39 µM
- TGI (HT29 colon): 11.6 µM
- GI50 (SNB-75 CNS): 6.14 µM
- TGI (SNB-75 CNS): 20.8 µM
- GI50 (KM12 colon): 2.67 µM
- TGI (KM12 colon): 7.93 µM
- GI50 (HL-60(TB) leukemia): 2.43 µM
- TGI (HL-60(TB) leukemia): 6.57 µM
- GI50 (UACC-257 melanoma): 12.6 µM
- TGI (UACC-257 melanoma): 25.2 µM
- GI50 (ACHN renal): 7.15 µM
- TGI (ACHN renal): 20.1 µM
- GI50 (EKVX NSCLC): 7.36 µM
- TGI (EKVX NSCLC): 20.2 µM
- GI50 (NCI-H460 lung): 15.5 µM
- TGI (NCI-H460 lung): 31.3 µM
- GI50 (LOX IMVI melanoma): 5 µM
- TGI (LOX IMVI melanoma): 18.9 µM
- GI50 (MDA-MB-435): 1.91 µM
- TGI (MDA-MB-435): 4.73 µM
- GI50 (K-562 leukemia): 2.09 µM
- TGI (K-562 leukemia): 10.3 µM
- GI50 (SNB-19 CNS): 16 µM
- TGI (SNB-19 CNS): 33.5 µM
- GI50 (MALME-3M melanoma): 6.81 µM
- TGI (MALME-3M melanoma): 20.5 µM
- GI50 (786-0 renal): 11.3 µM
- TGI (786-0 renal): 26.9 µM
- GI50 (RPMI-8226 leukemia): 2.87 µM
- TGI (RPMI-8226 leukemia): 12.3 µM
- GI50 (MCF7 breast): 3.34 µM
- TGI (MCF7 breast): 15.3 µM
- GI50 (HS 578T breast): 5.07 µM
- TGI (HS 578T breast): 22.2 µM
- GI50 (SR leukemia): 1.98 µM
- TGI (SR leukemia): 8.04 µM
- GI50 (COLO 205 colon): 7.16 µM
- TGI (COLO 205 colon): 21.3 µM
- GI50 (T-47D breast): 4.45 µM
- TGI (T-47D breast): 18 µM
- GI50 (SF-295 CNS): 4.11 µM
- TGI (SF-295 CNS): 16 µM
